Data: patent US11415579B2, “Assay for measuring a rate of reaction between a target and a ligand candidate” (Imperial College Innovations Ltd., priority 2016, dated 2022)

Tests used:
[1] = Kinetic thiol consumption assay with model thiol glutathione; format: physicochemical; set-up: Rate constant with glutathione (k(GSH)): unit not given here; settings: for Rate constant with glutathione (k(GSH)): 500 μM ligand, 5 μM thiol, phosphate buffer pH 8; for Rate constant with Glutathione: Protein: Glutathione, cysteine position NA, in h-1
Summary of the method: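 Rate constants for acrylamide reaction with 5 μM glutathione come from first-order exponential fits of normalized fluorescence decay (ex 380, em 470 nm). Reactions run in degassed phosphate buffer at pH 8 containing TCEP beads, room temperature.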

[2] = target: T1, human cyclin-dependent kinase 2 (Cdk2) (Homo sapiens, UniProt P24941); assay: Kinetic thiol consumption assay with wild type Cdk2 (C177); format: binding; set-up: key to Rate enhancement, Cdk2 WT: k(Cdk2) divided by k(model thiol); Rate constant with Cdk2 (k(Cdk2)): unit not given here; settings: for Rate constant with Cdk2 (k(Cdk2)): 500 μM ligand, 5 μM thiol, phosphate buffer pH 8; for Rate enhancement, Cdk2 WT: no additional mutations; for Rate constant with Cdk2 WT: Protein: Cdk2, cysteine position WT, in h^-1; for k(Cdk2)/k(Cdk2_mut) rate enhancement: model thiol Cdk2[C177A, F80C, K278C]; for k(Cdk2)/k(GSH) rate enhancement: model thiol glutathione
T1 construct: poly-histidine; made in house; host or cells: E. coli
Summary of the method: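 His-tagged human Cdk2 from E. coli (sole surface cysteine C177) or a model thiol, each 5 μM in degassed phosphate buffer pH 8 with immobilized TCEP, reacted with acrylamides at room temperature. Fluorescence (ex 380/em 470) normalized to DMSO/thiol control over time; first-order rate constants, Cdk2 rate divided by model-thiol rate.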

Cdk2[C177A, F80C, K278C] = target: T2, Cdk2[C177A, F80C, K278C] (Homo sapiens, UniProt P24941, C177A/F80C/K278C); assay: Kinetic thiol consumption assay with mutant Cdk2 as model thiol; format: binding; set-up: unit not given here; settings: 500 μM ligand, 5 μM thiol, phosphate buffer pH 8
T2 construct: poly-histidine; made in house; host or cells: E. coli
Summary of the method: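 First-order rate constants were derived by exponential-decay fitting of DMSO/thiol-normalized fluorescence (380/470 nm) over time at room temperature. Thiol was 5 μM E. coli-expressed His-tagged Cdk2 mutant C177A/F80C/K278C in degassed pH 8 phosphate buffer containing 2% v/v TCEP beads.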

Cdk2(C177A, F80C) = target: T3, Cdk2(C177A, F80C) (Homo sapiens, UniProt P24941, C177A/F80C); assay: Kinetic thiol consumption assay with Cdk2 mutant F80C, incl. kobs versus concentration (Kd, k2); format: binding; set-up: key to Rate enhancement, Cdk2 F80C: Cdk2 rate constant divided by model-thiol rate constant; settings: additional mutation C177A; for Rate constant with Cdk2 F80C: Protein: Cdk2, cysteine position F80C, in h^-1
T3 construct: poly-histidine; made in house; host or cells: E. coli
Summary of the method: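 His-tagged Cdk2(C177A/F80C) from E. coli or model thiol, 5 μM in degassed phosphate buffer pH 8 with TCEP beads, reacted with acrylamide ligands; fluorescence (ex/em 380/470 nm) normalized to DMSO control and fitted to first-order decay for kobs. Kd and k2 obtained from hyperbolic fit of kobs versus ligand concentration.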

Cdk2(H71C) (C177A) = target: T4, Cdk2(H71C) (C177A) (Homo sapiens, UniProt P24941, C177A/H71C); assay: Kinetic thiol consumption assay with Cdk2 mutant H71C; format: binding; set-up: key to Rate enhancement, Cdk2 H71C: rate constant with Cdk2 ÷ rate constant with model thiol (fold); settings: additional mutation C177A; for Rate constant with Cdk2 H71C: Protein: Cdk2, cysteine position H71C, in h^-1
T4 construct: poly-histidine; made in house; host or cells: E. coli
Summary of the method: (§1)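 Thiol consumption was monitored kinetically using 5 μM Cdk2 (C177A plus one introduced cysteine) in degassed phosphate buffer at pH 8 with TCEP beads. Plates were kept 1 h at room temperature before fluorescence reading, and rate constants came from exponential decay fitting.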

Cdk2(S276C) (C177A) = target: T5, Cdk2(S276C) (C177A) (Homo sapiens, UniProt P24941, C177A/S276C); assay: Kinetic thiol consumption assay with Cdk2 mutant S276C; format: binding; set-up: key to Rate enhancement, Cdk2 S276C: rate constant with Cdk2 ÷ rate constant with model thiol (fold); settings: additional mutation C177A; for Rate constant with Cdk2 S276C: Protein: Cdk2, cysteine position S276C, in h^-1
T5 construct: poly-histidine; made in house; host or cells: E. coli
Summary of the method: as §1

Cdk2(N272C) (C177A) = target: T6, Cdk2(N272C) (C177A) (Homo sapiens, UniProt P24941, C177A/N272C); assay: Kinetic thiol consumption assay with Cdk2 mutant N272C; format: binding; set-up: key to Rate enhancement, Cdk2 N272: rate constant with Cdk2 ÷ rate constant with model thiol (fold); settings: for Rate enhancement, Cdk2 N272: Cdk2 N272, additional mutation C177A; for Rate constant with Cdk2 N272C: Protein: Cdk2, cysteine position N272C, additional mutation C177A, in h^-1
T6 construct: poly-histidine; made in house; host or cells: E. coli
Summary of the method: as §1

Cdk2(T182C) (C177A) = target: T7, Cdk2(T182C) (C177A) (Homo sapiens, UniProt P24941, C177A/T182C); assay: Kinetic thiol consumption assay with Cdk2 mutant T182C; format: binding; set-up: key to Rate enhancement, Cdk2 T182C: rate constant with Cdk2 ÷ rate constant with model thiol (fold); settings: additional mutation C177A; for Rate constant with Cdk2 T182C: Protein: Cdk2, cysteine position T182C, in h^-1
T7 construct: poly-histidine; made in house; host or cells: E. coli
Summary of the method: as §1

Cdk2(R122C) (C177A) = target: T8, Cdk2(R122C) (C177A) (Homo sapiens, UniProt P24941, C177A/R122C); assay: Kinetic thiol consumption assay with Cdk2 mutant R122C; format: binding; set-up: key to Rate enhancement, Cdk2 R122C: rate constant with Cdk2 ÷ rate constant with model thiol (fold); settings: additional mutation C177A; for Rate constant with Cdk2 R122C: Protein: Cdk2, cysteine position R122C, in h-1
T8 construct: poly-histidine; made in house; host or cells: E. coli
Summary of the method: as §1

Cdk2(S181C) (C177A) = target: T9, Cdk2(S181C) (C177A) (Homo sapiens, UniProt P24941, C177A/S181C); assay: Kinetic thiol consumption assay with Cdk2 mutant S181C; format: binding; set-up: key to Rate enhancement, Cdk2 S181C: rate constant with Cdk2 ÷ rate constant with model thiol (fold); settings: additional mutation C177A; for Rate constant with Cdk2 S181C: Protein: Cdk2, cysteine position S181C, in h^-1
T9 construct: poly-histidine; made in house; host or cells: E. coli
Summary of the method: as §1

Row | Rate constant with Cdk2 (k(Cdk2)) [2] | Rate enhancement, Cdk2 WT [2] | Rate constant with Cdk2 WT [2] | k(Cdk2)/k(Cdk2_mut) rate enhancement [2] | k(Cdk2)/k(GSH) rate enhancement [2] | Rate constant with Cdk2[C177A, F80C, K278C] (k(Cdk2_mut)) (Cdk2[C177A, F80C, K278C]) | Rate enhancement, Cdk2 F80C (Cdk2(C177A, F80C)) | Rate enhancement, Cdk2 H71C (Cdk2(H71C) (C177A)) | Rate constant with Cdk2 H71C (Cdk2(H71C) (C177A)) | Rate enhancement, Cdk2 S276C (Cdk2(S276C) (C177A)) | Rate constant with Cdk2 S276C (Cdk2(S276C) (C177A)) | Rate enhancement, Cdk2 N272 (Cdk2(N272C) (C177A)) | Rate constant with Cdk2 N272C (Cdk2(N272C) (C177A)) | Rate enhancement, Cdk2 T182C (Cdk2(T182C) (C177A)) | Rate constant with Cdk2 T182C (Cdk2(T182C) (C177A)) | Rate enhancement, Cdk2 R122C (Cdk2(R122C) (C177A)) | Rate constant with Cdk2 R122C (Cdk2(R122C) (C177A)) | Rate enhancement, Cdk2 S181C (Cdk2(S181C) (C177A)) | SMILES | Rate constant with glutathione (k(GSH)) [1] | Rate constant with Glutathione [1] | also measured
1 | 0.00423 | 1.547 | 0.01128 | 3.343 | 1.018 | 0.00127 | 0 | 0.4785 | 0.003488 | 0.5204 | 0.003794 | 1.029 | 0.007502 | 13.51 | 0.09852 | 0.2126 | 0.00155 | 0.8523 | C=CC(=O)NC1c2ccccc2Oc2ccccc21 [CA-171] | 0.00416 | 0.00729 | Rate constant with Cdk2 S181C (Cdk2(S181C) (C177A)): 0.006213
2 | 0.00754 | 0.4816 | 0.007537 | 1.495 | 0.4779 | 0.00504 | 0.3401 | 0.1755 | 0.002746 | 1.187 | 0.01857 | 0.6511 | 0.01019 | 2.778 | 0.04347 | 0.3379 | 0.005288 | 1.349 | C=CC(=O)N1CC(n2cccn2)C1 [CA-173] | 0.01577 | 0.01565 | Rate constant with Cdk2 F80C (Cdk2(C177A, F80C)): 0.005323; Rate constant with Cdk2 S181C (Cdk2(S181C) (C177A)): 0.02111
3 | 0.1507 | 0.9532 | 0.1507 | 0.2468 | 1.065 | 0.6107 | 1.581 | 5.546 | 0.8769 | 2.953 | 0.4669 | 3.356 | 0.5306 | 2.909 | 0.4599 | 1.616 | 0.2555 | 0.8912 | C=CC(=O)N(Cc1ccco1)Cc1cc2cc(C)ccc2o1 [CA-178] | 0.1415 | 0.1581 | Rate constant with Cdk2 F80C (Cdk2(C177A, F80C)): 0.2499; Rate constant with Cdk2 S181C (Cdk2(S181C) (C177A)): 0.1409

Second part, the compound before the results:

Row | SMILES | Rate constant with Cdk2 (k(Cdk2)) [2] | Rate enhancement, Cdk2 WT [2] | Rate constant with Cdk2 WT [2] | k(Cdk2)/k(Cdk2_mut) rate enhancement [2] | k(Cdk2)/k(GSH) rate enhancement [2] | Rate constant with Cdk2[C177A, F80C, K278C] (k(Cdk2_mut)) (Cdk2[C177A, F80C, K278C]) | Rate enhancement, Cdk2 F80C (Cdk2(C177A, F80C)) | Rate enhancement, Cdk2 H71C (Cdk2(H71C) (C177A)) | Rate constant with Cdk2 H71C (Cdk2(H71C) (C177A)) | Rate enhancement, Cdk2 S276C (Cdk2(S276C) (C177A)) | Rate constant with Cdk2 S276C (Cdk2(S276C) (C177A)) | Rate enhancement, Cdk2 N272 (Cdk2(N272C) (C177A)) | Rate constant with Cdk2 N272C (Cdk2(N272C) (C177A)) | Rate enhancement, Cdk2 T182C (Cdk2(T182C) (C177A)) | Rate constant with Cdk2 T182C (Cdk2(T182C) (C177A)) | Rate enhancement, Cdk2 R122C (Cdk2(R122C) (C177A)) | Rate constant with Cdk2 R122C (Cdk2(R122C) (C177A)) | Rate enhancement, Cdk2 S181C (Cdk2(S181C) (C177A)) | Rate constant with glutathione (k(GSH)) [1] | Rate constant with Glutathione [1] | also measured
4 | C=CC(=O)Nc1nc2c(s1)CCCCCC2 [CA-170] | 0.2972 | 4.135 | 0.2972 | 0.3231 | 4.273 | 0.9197 | 13.67 | 0.9221 | 0.06628 | 0.7229 | 0.05196 | 0.4672 | 0.03358 | 5.267 | 0.3786 | 0.3489 | 0.02508 | 0.4978 | 0.06955 | 0.07188 | Rate constant with Cdk2 F80C (Cdk2(C177A, F80C)): 0.9829; Rate constant with Cdk2 S181C (Cdk2(S181C) (C177A)): 0.03578
5 | C=CC(=O)N1CCN(c2cc(N3CCOCC3)ncn2)CC1 [CA-179] | 0.0076 | 1.117 | 0.007599 | 1.056 | 1.112 | 0.00719 | 0.3927 | 1.062 | 0.007227 | 1.169 | 0.007953 | 0.4 | 0.002721 | 7.042 | 0.0479 | 0.6453 | 0.004389 | 2.608 | 0.00683 | 0.006802 | Rate constant with Cdk2 F80C (Cdk2(C177A, F80C)): 0.002671; Rate constant with Cdk2 S181C (Cdk2(S181C) (C177A)): 0.01774
6 | C=CC(=O)N(Cc1ccc2c(c1)CCO2)C1CCCC1 [CA-184] | 0.2235 | 7.607 | 0.2235 | 3.034 | 12.04 | 0.07366 | 2.208 | 7.662 | 0.2251 | 20.94 | 0.6153 | 7.192 | 0.2113 | 11.73 | 0.3446 | 0.7583 | 0.02228 | 10.57 | 0.01856 | 0.02938 | hit classification, Example 1 ([2]; hits defined as kCdk2/kGSH>5.8 (3 standard deviations over the mean)): hit fragments; Rate constant with Cdk2 F80C (Cdk2(C177A, F80C)): 0.06488; Rate constant with Cdk2 S181C (Cdk2(S181C) (C177A)): 0.3106
